The values that follow come from ChEMBL document CHEMBL1201862, “PubChem BioAssay data set” (2004).

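Growth conditions: 96-well plates. Treatment: test compound, 48 hours, 5 concentrations. Analysis: linear interpolation between bracketing concentrations; unreached endpoints set to highest concentration. Abbreviation: GI50, concentration required for 50% inhibition of growth.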 Activity calls are given as the source filed them. No stated cut-off is given here; in the data, active = GI50 up to about 1.1 µM and inactive = higher.

Common to all, as to experiment: inhibition of tumour cell growth, NCI panel, 48 h
The subject of assay [1] is IGROV-1.
Assay [2] has as its system SW-620.
The subject of assay [3] is MOLT-4.
Assay [4] relates to U-251.
Assay [5] relates to SK-MEL-28.
Assay [6] relates to UO-31.
In assay [7] the test system is TK-10.
Assay [8] deals with UACC-62.
Assay [9] deals with 786-0.
Assay [10] has as its system SNB-19.
The test system of assay [11] is SF-268.
Assay [12] concerns SF-295.
The test system of assay [13] is CAKI-1.
Assay [14] deals with M14.
The subject of assay [15] is SK-OV-3.
Assay [16] has as its system SN12C.
In assay [17] the test system is HCT-15.
Assay [18] has as its system OVCAR-4.
Assay [19] concerns HL-60.
The subject of assay [20] is CCRF-CEM.

Regarding `CCn1c2c(c3ccccc31)C(c1ccccc1)CC1C(=O)N(c3ccccc3)C(=O)C21` (stereo not given), the GI50 in assay [1] was 33 µM (inactive); in [2], > 100 µM (inactive); in [3], 91.2 µM (inactive); in [4] it was > 10 µM (inactive); in [5], 41.6 µM (inactive); in [6], 36.1 µM (inactive). The GI50 was > 100 µM (inactive) in assay [7]; 38.9 µM (inactive) in assay [8]; 21 µM (inactive) in assay [9]; 50.5 µM (inactive) in assay [10]; > 100 µM (inactive) in assay [11]; > 100 µM (inactive) in [12]. The GI50 was 35.2 µM (inactive) in assay [13]; > 100 µM (inactive) in assay [14]; 24.7 µM (inactive) in assay [15]; 67.1 µM (inactive) in assay [16]; over 100 µM in assay [17]; > 100 µM (inactive) in assay [18]. Further, the results for the GI50 in assay [19] and in assay [20] were 68.9 µM (inactive) and > 100 µM (inactive), respectively.

`CN1C(c2ccccc2)CC(=NO)CC1c1ccccc1` (stereo not given): the GI50 in assay [1] is > 100 µM (inactive); in assay [2], 48.8 µM (inactive); in assay [3], 19.2 µM (inactive); in assay [4], 67.6 µM (inactive); in assay [5], 91.2 µM (inactive); in assay [6], 26.4 µM (inactive). The GI50 in assay [7] is > 100 µM (inactive); in assay [8] it was 39.8 µM (inactive); in assay [9] it was 97.9 µM (inactive); in [10], > 100 µM (inactive); in assay [11], 55.7 µM (inactive); in assay [12], 41.5 µM (inactive). Further, the GI50 in assay [13] is 48.2 µM (inactive); in [14], 43 µM (inactive); in assay [15] it was > 100 µM (inactive); in assay [16], 24.9 µM (inactive); in assay [17] it was 37.9 µM; in assay [18], 40.2 µM (inactive). The GI50 was 16.4 µM (inactive) in assay [19] and 28.2 µM (inactive) in assay [20].

For the compound `C1=C2C3=[N+](CCCC3)CC2Cc2ccsc21` (stereo not given), the GI50 in [1] is > 100 µM (inactive); in assay [2] it was > 100 µM (inactive); in [3], > 100 µM (inactive); in assay [4], 28.7 µM (inactive); in assay [5], > 100 µM (inactive); in assay [6], > 100 µM (inactive). Moreover, the GI50 in assay [7] is 87.7 µM (inactive); in assay [8], > 100 µM (inactive); in assay [9] it was > 100 µM (inactive); in [10], 56.2 µM (inactive); in [11], > 100 µM (inactive); in assay [12], 55.3 µM (inactive). In addition, the GI50 is > 100 µM (inactive) in assay [13]; 71.3 µM (inactive) in assay [14]; > 100 µM (inactive) in [15]; > 100 µM (inactive) in assay [16]; over 100 µM in assay [17]; 84.3 µM (inactive) in [18]. The GI50 is 76.2 µM (inactive) in assay [19] and > 100 µM (inactive) in assay [20].

Turning to `C=C(Cl)[C@](Cl)(CBr)CC[C@@H](Br)C(C)(C)Cl` [HALOMON], the GI50 in assay [1] is 6.67 µM (inactive); in assay [2] it was 2.07 µM (inactive); in assay [3] it was 12.8 µM (inactive); in assay [4], 0.181 µM (active); in assay [5] it was 1.73 µM (inactive); in [6], 0.959 µM (active). Further, the GI50 was 1.81 µM (inactive) in [7]; 3.19 µM (inactive) in assay [8]; 0.147 µM (active) in [9]; 1.46 µM (inactive) in assay [10]; 0.515 µM (active) in assay [11]; 1.02 µM (active) in assay [12]. Further, the GI50 is 0.337 µM (active) in assay [13]; 15.7 µM (inactive) in assay [14]; 9.57 µM (inactive) in assay [15]; 3.23 µM (inactive) in assay [16]; 2.01 µM in assay [17]; 1.46 µM (inactive) in [18]. In addition, the GI50 is 0.421 µM (active) in assay [19] and 14.4 µM (inactive) in assay [20].

Consider `CCOP(=O)(OCC)C(c1ccc(F)cc1)N(C(=O)NC(F)(F)F)c1cccc(C(F)(F)F)c1` (stereo not given), for which the GI50 in [1] was 65.8 µM (inactive); in assay [2], > 100 µM (inactive); in assay [3] it was 61.9 µM (inactive); in assay [4], > 100 µM (inactive); in assay [5], > 100 µM (inactive); in assay [6] it was 94.8 µM (inactive). In addition, the GI50 in assay [7] was > 100 µM (inactive); in assay [8], 72.8 µM (inactive); in [9], > 10 µM (inactive); in [10] it was 77.3 µM (inactive); in assay [11], > 100 µM (inactive); in assay [12], > 100 µM (inactive). Also, the GI50 was > 100 µM (inactive) in assay [13]; > 100 µM (inactive) in [14]; > 100 µM (inactive) in assay [15]; > 100 µM (inactive) in [16]; over 100 µM in assay [17]; 96.4 µM (inactive) in assay [18]. The GI50 is 43.9 µM (inactive) in assay [19] and > 100 µM (inactive) in assay [20].

As to `Cc1c(C#N)c(=N)oc2ccccc12`, the GI50 in [1], in assay [2], in assay [3], in assay [4], in [5] and in [6] was > 100 µM (inactive) throughout. The GI50 in assay [7], in assay [8], in assay [9], in assay [10], in assay [11] and in assay [12] was > 100 µM (inactive) each time. In addition, the GI50 in [13] was > 100 µM (inactive); in assay [14] it was > 100 µM (inactive); in assay [15], > 100 µM (inactive); in [16] it was > 100 µM (inactive); in assay [17] it was 83.2 µM; in assay [18], > 100 µM (inactive). Besides, the GI50 in assay [19] is > 100 µM (inactive); in assay [20], > 10 µM (inactive).

For `N#Cc1nnn(C2CCCCC2)c1O`, the GI50 in [1], in assay [2], in assay [3], in assay [4], in assay [5] and in assay [6] was > 100 µM (inactive) in each case. For the same compound, the GI50 in [7], in [8], in assay [9], in assay [10], in [11] and in assay [12] was > 100 µM (inactive) in each case. In addition, the GI50 is > 100 µM (inactive) in assay [13]; > 100 µM (inactive) in assay [14]; > 100 µM (inactive) in assay [15]; > 100 µM (inactive) in [16]; over 100 µM in assay [17]; > 100 µM (inactive) in assay [18]. The GI50 in [19] and in assay [20] was > 100 µM (inactive) throughout.

For the compound `[N-]=[N+]=CC(=O)OC1Cc2ccccc2C1`, the GI50 was > 100 µM (inactive) in [1]; > 100 µM (inactive) in assay [2]; > 100 µM (inactive) in assay [3]; > 100 µM (inactive) in assay [4]; > 100 µM (inactive) in assay [5]; 16.6 µM (inactive) in assay [6]. Also, the GI50 was 97.3 µM (inactive) in [7]; > 100 µM (inactive) in [8]; > 81.7 µM (inactive) in assay [9]; > 100 µM (inactive) in assay [10]; > 100 µM (inactive) in assay [11]; 61.9 µM (inactive) in assay [12]. Moreover, the GI50 was 1 µM (active) in assay [13]; > 100 µM (inactive) in assay [14]; > 100 µM (inactive) in [15]; > 39.4 µM (inactive) in assay [16]; over 100 µM in assay [17]; > 100 µM (inactive) in assay [18]. The values for the GI50 in [19] and in assay [20] were > 100 µM (inactive) and > 31.6 µM (inactive), respectively.

As for `CCOC(=O)C1C(=O)CC(=O)C2CCCCC21` (stereo not given), the GI50 in assay [1], in assay [2], in assay [3], in assay [4], in assay [5] and in assay [6] was > 100 µM (inactive) each time. The GI50 in assay [7], in assay [8], in assay [9], in assay [10], in assay [11] and in assay [12] was > 100 µM (inactive) throughout. Also, the GI50 in assay [13] is > 100 µM (inactive); in [14], > 100 µM (inactive); in [15], > 100 µM (inactive); in [16], > 100 µM (inactive); in assay [17], over 100 µM; in [18] it was > 100 µM (inactive). The GI50 in [19] and in assay [20] was > 100 µM (inactive) throughout.

For the compound `Cc1cc2ncn(CC(=O)O)c2cc1C`, the GI50 in assay [1], in assay [2], in assay [3], in assay [4], in assay [5] and in [6] was > 100 µM (inactive) each time. Also, the GI50 in [7], in [8], in assay [9], in [10], in assay [11] and in [12] was > 100 µM (inactive) in each case. In addition, the GI50 in [13] is > 100 µM (inactive); in [14], > 100 µM (inactive); in [15], > 100 µM (inactive); in assay [16] it was > 100 µM (inactive); in assay [17], over 100 µM; in assay [18], > 100 µM (inactive). For the same compound, the GI50 in assay [19] and in assay [20] was > 100 µM (inactive) in each case.
